Laboratory results as given in patent publication US20260115187A1, “TRICYCLIC SKELETON COMPOUND AND USE THEREOF IN PREPARATION OF ANTITUMOR DRUG” (ZHONGSHAN HOSPITAL, FUDAN UNIVERSITY, priority 2024, published 2026).

Assays:
[1] = tested on: MHCC97H KSR2 OE (97H cells overexpressing KSR2); assay: Cell IC50 assay (CCK8 cell viability), MHCC97H KSR2 OE; type: cell-based; settings: Homo sapiens, hepatoma cells, 72 h incubation, CCK8, read-out: IC50 value of cell viability, MHCC97H KSR2 OE (97H cells overexpressing KSR2)
Experimental: (§1) (1) Cell Preparation: Hepatoma cells (PLC/PRF/5, sourced from the Chinese Academy of Sciences; MHCC97H, sourced from this research institute) in good growth condition are prepared. The cells are trypsinized, diluted, and seeded into 96-well cell culture plates. 1,000-3,000 cells are added per well. The plates are then placed in a cell culture incubator at 37° C. with 5% CO2. Drugs are added after the cells have adhered for 24 h.
(§2) (2) Drug Addition: The drugs are subjected to gradient dilution, typically setting 9 concentrations. Control groups containing no drug medium and medium containing only the drug solvent are also set up. The diluted drugs are added to the cell culture plates seeded the previous day. The plates are incubated for 72 h.
(§3) (3) CCK8 Assay for Cell Viability: CCK8 is mixed with culture medium at a 1:10 ratio. 100 μL of this mixture is added to each well of the cell culture plate. After incubating for 2-4 h, the OD values are measured using a microplate reader.
(§4) (4) Data Analysis: Based on the corresponding OD values, the data are compiled, IC50 curves are plotted, and the IC50 values are obtained.
(§5) (5) IC50 Verification: The theoretical IC50 value is identified from the IC50 curve. Drug concentrations at ½ times, 1 time, and 2 times this theoretical value are used for verification.

[2] = tested on: PLC/PRF/5 KSR2 OE (PLC cells overexpressing KSR2); assay: Cell IC50 assay (CCK8 cell viability), PLC/PRF/5 KSR2 OE; type: cell-based; settings: Homo sapiens, PLC-PRF-5; hepatoma cells, 72 h incubation, CCK8; read-out: IC50 value of cell viability, PLC/PRF/5 KSR2 OE (PLC cells overexpressing KSR2)
Experimental: as §1, §2, §3, §4, §5

SMILES: CN1CCN(C2CCN(CCCNC(=O)c3nn(C)c4c3COc3cc(Cl)c(C#N)cc3-4)CC2)CC1 [Compound 113]
- IC50 [1]: 0.8 µM
- IC50 [2]: 1 µM

SMILES: CCN1CCN(C2CN(C3CC(CNC(=O)c4nn(C)c5c4COc4cc(Cl)ccc4-5)C3)C2)CC1 (stereo not drawn) [Compound 114]
- IC50 [1]: 2 µM
- IC50 [2]: 4 µM

SMILES: Cc1ccc2c(c1)OCc1c-2nn(C)c1C(=O)NCCCN1CC(N2CCN(C)CC2)C1 [Compound 115]
- IC50 [1]: 18 µM
- IC50 [2]: 43 µM

SMILES: Cc1ccc2c(c1)OCc1c-2nn(C)c1C(=O)NCCCN1CCC(N2CCN(C)CC2)CC1 [Compound 116]
- IC50 [1]: 7 µM
- IC50 [2]: 18 µM

SMILES: CN1CCN(C2CCN(CCCNC(=O)c3c4c(nn3C)-c3ccc(Cl)cc3OC4)CC2)CC1 [Compound 117]
- IC50 [1]: 0.7 µM
- IC50 [2]: 6 µM

SMILES: CN1CCN(C2CN(CCCNC(=O)c3c4c(nn3C)-c3ccc(Cl)cc3OC4)C2)CC1 [Compound 118]
- IC50 [1]: 5 µM
- IC50 [2]: 10 µM

SMILES: CN1CCN(C2CN(CCCNC(=O)c3nn(C)c4c3COc3cc(Cl)c(C#N)cc3-4)C2)CC1 [Compound 119]
- IC50 [1]: 7 µM
- IC50 [2]: 5 µM

SMILES: Cc1ccc2c(c1)OCc1c(C(=O)NCCCN3CCC(N4CCN(C)CC4)CC3)nn(C)c1-2 [Compound 120]
- IC50 [1]: 10 µM
- IC50 [2]: 8 µM

SMILES: Cc1ccc2c(c1)OCc1c(C(=O)NCCCN3CC(N4CCN(C)CC4)C3)nn(C)c1-2 [Compound 121]
- IC50 [1]: 20 µM
- IC50 [2]: 18 µM

SMILES: CN1CCN(C2CCN(CCCNC(=O)c3c4c(nn3C)-c3cc(C#N)c(Cl)cc3OC4)CC2)CC1 [Compound 122]
- IC50 [1]: 5 µM
- IC50 [2]: 4 µM

SMILES: CN1CCN(C2CCN(CCCNC(=O)c3c4c(nn3C)-c3ccc(-c5cn[nH]c5)cc3OC4)CC2)CC1 [Compound 123]
- IC50 [1]: 85 µM
- IC50 [2]: 114 µM

SMILES: CN1CCN(C2CCN(CCCNC(=O)c3c4c(nn3C)-c3ccc(-n5nccn5)cc3OC4)CC2)CC1 [Compound 124]
- IC50 [1]: 5 µM
- IC50 [2]: 2 µM

SMILES: CN1CCN(C2CCN(CCCNC(=O)c3n[nH]c4c3COc3cc(Cl)ccc3-4)CC2)CC1 [Compound 125]
- IC50 [1]: 1 µM
- IC50 [2]: 1 µM

SMILES: CN1CCN(C2CN(CCCNC(=O)c3n[nH]c4c3COc3cc(Cl)ccc3-4)C2)CC1 [Compound 126]
- IC50 [1]: 7 µM
- IC50 [2]: 9 µM

SMILES: CN1CCN(C2CCN(CCCNC(=O)c3nn(C)c4c3COc3cc(-c5cn[nH]c5)ccc3-4)CC2)CC1 [Compound 127]
- IC50 [1]: 4 µM
- IC50 [2]: 8 µM

SMILES: CN1CCN(C2CCN(CCCNC(=O)c3n[nH]c4c3COc3cc(Cl)c(C#N)cc3-4)CC2)CC1 [Compound 128]
- IC50 [1]: 6 µM
- IC50 [2]: 4 µM

SMILES: CCN1CCN(C2CCN(CCCNC(=O)c3n[nH]c4c3COc3cc(Cl)c(C#N)cc3-4)CC2)CC1 [Compound 129]
- IC50 [1]: 4 µM
- IC50 [2]: 5 µM

SMILES: CN1CCN(C2CCN(CCCNC(=O)c3n[nH]c4c3COc3cc(C(F)(F)F)c(C#N)cc3-4)CC2)CC1 [Compound 130]
- IC50 [1]: 4 µM
- IC50 [2]: 10 µM

SMILES: CN1CCN(C2CN(CCCNC(=O)c3n[nH]c4c3COc3cc(C(F)(F)F)c(C#N)cc3-4)C2)CC1 [Compound 131]
- IC50 [1]: 9 µM
- IC50 [2]: 14 µM

SMILES: CCN1CCN(C2CCN(CCCNC(=O)c3n[nH]c4c3COc3cc(C(F)(F)F)c(C#N)cc3-4)CC2)CC1 [Compound 132]
- IC50 [1]: 1 µM
- IC50 [2]: 4 µM

SMILES: CCN1CCN(C2CCN(CCCNC(=O)c3nn(C)c4c3COc3cc(-c5cnn(C)c5)ccc3-4)CC2)CC1 [Compound 133]
- IC50 [1]: 1 µM
- IC50 [2]: 2 µM
